Data: paper PMC3408453, “A Foldamer-Dendrimer Conjugate Neutralizes Synaptotoxic β-Amyloid Oligomers” (PLoS ONE, 2012)

System: LTP in mouse hippocampal slices impaired by Aβ(1–42) oligomers
Assay: Ex vivo hippocampal slice LTP electrophysiology
Format: cell-based
Details: mean ±SEM
Excerpt: We investigated whether 7 could protect against the synaptic plasticity damage caused by Aβ(1–42) oligomers by using a hippocampus slice LTP model. LTP, a correlate of learning and memory has been repeatedly shown to be impaired by Aβ(1–42) oligomers. As negative control, substance 11 was applied. The experimenters were blind to the compounds tested.
These observations indicate the significant protective effect of 7 (Figure 12D). To test the effects of valency, LTP experiments were repeated with 8 under the same conditions.
Via standard procedures, 350-µm-thick transverse hippocampal slices were prepared from the brain of 7-months-old mice (CD1, Animal Breeding Facility, University of Szeged) with a McIlwain tissue chopper (Campden Instruments, Loughborough, UK). Slices were incubated in standard artificial cerebrospinal fluid (ACSF) at ambient temperature for 60 min, during constant gassing with 95% O2–5% CO2. The ACSF contained (mM): NaCl, 130; KCl, 3.5; CaCl2, 2; MgCl2, 2; NaH2PO4, 0.96; NaHCO3, 24; and D-glucose, 10 (pH 7.4). Individual slices were transferred to a 3D-MEA chip with 60 tip-shaped and 60-μm-high electrodes spaced at 100 μm (Ayanda Biosystems, S.A., Lausanne, Switzerland). The slice was continuously perfused with oxygenated ACSF (1.5 ml min^−1 at 34 °C) containing 720 nM Aβ(1–42) oligomers and/or 950 nM ligand throughout the recording session. Data were recorded with a standard, commercially available MEA setup (Multi Channel Systems MCS GmbH, Reutlingen, Germany). The Schaffer-collateral was stimulated by injecting a biphasic current waveform (−100/+100 μs) through one selected electrode at 0.033 Hz. Care was taken to choose the stimulating electrode in the same region from one slice to the other. The peak-to-peak amplitudes of fEPSPs at the stratum pyramidale and stratum radiatum of CA1 were analyzed. After a 30-min incubation period, the threshold and the maximum of stimulation intensity for evoke responses was determined. To evoke responses, 30% of the maximal stimulation intensity was used. LTP was induced by applying a theta-burst stimulation (TBS) pattern at the maximal stimulation intensity. The TBS comprised four trains administered at 20-s intervals with 10 bursts given at 5 Hz per train and 4 pulses at 100 Hz per burst. Statistical analysis was carried out by using two-tailed Student's t-test. For representative raw data see Figure S12.

N=C(N)NCCC[C@@H](CC(=O)N[C@H]1CCCC[C@@H]1C(=O)N[C@H]1CCCC[C@@H]1C(=O)N[C@@H](CC(=O)O)CC(=O)N[C@H]1CCCC[C@@H]1C(=O)NCC(=O)NCC(=O)N[C@@H](CSC1CC(=O)N(CCC(=O)NCCNC(=O)CCN(CCC(=O)NCCNC(=O)CCN2C(=O)CC(SC[C@H](NC(=O)CNC(=O)CNC(=O)[C@H]3CCCC[C@@H]3NC(=O)C[C@H](CC(=O)O)NC(=O)[C@H]3CCCC[C@@H]3NC(=O)[C@H]3CCCC[C@@H]3NC(=O)C[C@H](CCCNC(=N)N)NC(=O)[C@H]3CCCC[C@@H]3N)C(N)=O)C2=O)CCN(CCC(=O)NCCNC(=O)CCN2C(=O)CC(SC[C@H](NC(=O)CNC(=O)CNC(=O)[C@H]3CCCC[C@@H]3NC(=O)C[C@H](CC(=O)O)NC(=O)[C@H]3CCCC[C@@H]3NC(=O)[C@H]3CCCC[C@@H]3NC(=O)C[C@H](CCCNC(=N)N)NC(=O)[C@H]3CCCC[C@@H]3N)C(N)=O)C2=O)CCC(=O)NCCNC(=O)CCN2C(=O)CC(SC[C@H](NC(=O)CNC(=O)CNC(=O)[C@H]3CCCC[C@@H]3NC(=O)C[C@H](CC(=O)O)NC(=O)[C@H]3CCCC[C@@H]3NC(=O)[C@H]3CCCC[C@@H]3NC(=O)C[C@H](CCCNC(=N)N)NC(=O)[C@H]3CCCC[C@@H]3N)C(N)=O)C2=O)C1=O)C(N)=O)NC(=O)[C@H]1CCCC[C@@H]1N (some centres unmarked) [Compound 7]
LTP (potentiation) with Aβ(1–42) oligomers and ligand together (720 nM Aβ(1–42) oligomers + 950 nM ligand, 180 min after LTP induction): 195±5%
LTP (potentiation) with ligand alone (950 nM ligand, no Aβ oligomers): 184±16%
